The source of these data is patent US4294842A, “Anti-protozoal oxadiazole derivatives” (Burroughs Wellcome Co., priority 1978, dated 1981).

One data set deals with P. berghei. The data set can be described thus: Inhibition of P. berghei blood parasitaemia in infected mice (oral). It is filed as in vivo. To be noted: Plasmodium berghei, 96 h, read-out: Percentage Inhibitions of P. berghei; for inhibition in vivo at 100 mg/kg: 7 × 100 mg/kg, parasitaemia on fourth day vs untreated controls; for inhibition in vivo at 50 mg/kg: 7 × 50 mg/kg. The source says: Groups of five mice were inoculated intraperitoneally with the normal strain of P. berghei. The mice on test received seven oral doses of drug begining on the afternoon of the day of infection then twice a day for the following three days. Blood parasitaemias were estimated on the fourth day and compared with those of the untreated controls.
The results are given in Table 1, the results being expressed as percentage inhibition of P.berghei.

The nature of another data set: Oral LD50 in mice. To be noted: mouse, in vivo, suspension in 0.25% Celacol. As for the experimental part:
The LD50 of the compound of Example 4 was determined in mice by conventional methods, the compound being administered orally as a suspension in 0.25% Celacol.

Data set [1] has as its system Eimeria tenella. In words: Inhibition of Eimeria tenella in monolayer cultures of chick embryo liver cells. The data set is classed as cell-based. To be noted: fixed 90 hours after infection, scale 0 to 4. The procedure:
Monolayer cultures of chick embryo liver cells were seeded onto microtitration plates and treated with the test compound (formulated by suspension in ethanol (0.05 ml) followed by dilution with sterile water (0.95 ml). Sporozoites of Eimeria tenella in culture medium were added and the culture fixed 90 hours after infection. The percentage inhibition compared to controls was determined, the results being expressed on a sacle of 0(0-10% inhibition) to 4(91-100% inhibition). The results are given in Table 2.

The subject of data set [2] is Eimeria tenella. In words: Index of inhibition, 400ppm in vivo (Table 2). The following applies: scale 0 to 4.

In the case of `Cc1ccc(SCc2ncon2)cc1` [Example 1, 3-(4-Methylphenylthiomethyl)-1,2,4-oxadiazole], the inhibition in vivo at 100 mg/kg in the data set with P. berghei was 38%. Regarding `Brc1ccc(SCc2ncon2)cc1` [Example 3, 3-(4-Bromophenylthiomethyl)-1,2,4-oxadiazole], the inhibition in vivo at 100 mg/kg in the data set with P. berghei was 71%. For orientation: LD50 means the dose expected to kill half of the subjects tested. Higher therefore signals a less toxic substance. For `c1ccc(SCc2ncon2)cc1` [Example 4, 3-Phenylthiomethyl-1,2,4-oxadiazole], the inhibition in vivo at 100 mg/kg in the data set on P. berghei was determined as 49%. Besides, the LD50 in the data set “Oral LD50 in mice” is about 1600 mg/kg. `Brc1ccccc1SCc1ncon1` [Example 5, 3-(2-Bromophenylthiomethyl)-1,2,4-oxadiazole]: the inhibition in vivo at 80 mg/kg in the data set with P. berghei (7 × 80 mg/kg) was 2%. The “Index of Inhibition” value in the data set with Eimeria tenella [1] (20μg/ml) is 1. With `COc1ccccc1SCc1ncon1` [Example 6, 3-(2-Methoxyphenylthiomethyl)-1,2,4-oxadiazole], the inhibition in vivo at 50 mg/kg in the data set on P. berghei worked out at 5%. For the compound `c1ccc(Sc2cccc(SCc3ncon3)c2)cc1` [Example 7, 3-(3-Phenylthiophenylthiomethyl)-1,2,4-oxadiazole], the inhibition in vivo at 100 mg/kg in the data set on P. berghei came to 2%. For the same compound, the “Index of Inhibition” value in the data set on Eimeria tenella [1] (20μg/ml) worked out at 1.

As to `Cc1cccc(SCc2ncon2)c1` [Example 8, 3-(3-Methylphenylthiomethyl)-1,2,4-oxadiazole], the “Index of Inhibition” value in the data set on Eimeria tenella [1] (20μg/ml) worked out at 3. In the case of `Nc1cccc(SCc2ncon2)c1` [Example 9, 3-(3-Aminophenylthiomethyl)-1,2,4-oxadiazole], the inhibition in vivo at 100 mg/kg in the data set with P. berghei came to 34%. The “Index of Inhibition” value with Eimeria tenella [1] (20μg/ml) stood at 2. With `COc1cccc(SCc2ncon2)c1` [Example 10, 3-(3-Methoxyphenylthiomethyl)-1,2,4-oxadiazole], in the data set with Eimeria tenella [1] (5μg/ml), the “Index of Inhibition” value is 4 (91-100% inhibition). Consider `O=[N+]([O-])c1ccc(SCc2ncon2)cc1` [Example 12, 3-(4-Nitrophenylthiomethyl)-1,2,4-oxadiazole], for which the inhibition in vivo at 100 mg/kg in the data set with P. berghei is 14%. Further, the “Index of Inhibition” value with Eimeria tenella [1] (20μg/ml) is recorded as 4 (91-100% inhibition). Take `COc1ccc(SCc2ncon2)cc1` [Example 13, 3-(4-Methoxyphenylthiomethyl)-1,2,4-oxadiazole]: the “Index of Inhibition” value with Eimeria tenella [1] (20μg/ml) turned out to be 2. Turning to `Nc1ccc(SCc2ncon2)cc1` [Example 14, 3-(4-Aminophenylthiomethyl)-1,2,4-oxadiazole], the inhibition in vivo at 100 mg/kg in the data set on P. berghei amounted to 41%. Also, the “Index of Inhibition” value in the data set on Eimeria tenella [1] (20μg/ml) came out at 2. Turning to `Fc1ccc(SCc2ncon2)cc1` [Example 15, 3-(4-Fluorophenylthiomethyl)-1,2,4-oxadiazole], the inhibition in vivo at 50 mg/kg in the data set on P. berghei was found to be 59%. Also, in the data set on Eimeria tenella [1] (20μg/ml), the “Index of Inhibition” value stood at 3. With `CSc1ccc(SCc2ncon2)cc1` [Example 16, 3-(4-Methylthiophenylthiomethyl)-1,2,4-oxadiazole], the inhibition in vivo at 100 mg/kg with P. berghei is 4%. Moreover, the “Index of Inhibition” value in the data set with Eimeria tenella [1] (20μg/ml) is on record as 2. Turning to `Cc1cccc(SCc2ncon2)c1C` [Example 17, 3-(2,3-Dimethylphenylthiomethyl)-1,2,4-oxadiazole], in the data set with P. berghei, the inhibition in vivo at 100 mg/kg is 62%. Also, in the data set with Eimeria tenella [1] (20μg/ml), the “Index of Inhibition” value was 2. Consider `Cc1ccc(SCc2ncon2)c(C)c1` [Example 18, 3-(2,4-Dimethylphenylthiomethyl)-1,2,4-oxadiazole], for which, in the data set with P. berghei, the inhibition in vivo at 100 mg/kg stood at 14%. Besides, the “Index of Inhibition” value with Eimeria tenella [1] (20μg/ml) came to 2. With `c1ccc2c(SCc3ncon3)cccc2c1` [Example 19, 3-(1-Naphthylthiomethyl)-1,2,4-oxadiazole], the inhibition in vivo at 50 mg/kg in the data set on P. berghei is 55%. For the compound `Clc1ccc(SCc2ncon2)cc1Cl` [Example 20, 3-(3,4-Dichlorophenylthiomethyl)-1,2,4-oxadiazole], the “Index of Inhibition” value with Eimeria tenella [1] (20μg/ml) was determined as 3. Take `Clc1cc(Cl)c(SCc2ncon2)cc1Cl` [Example 21, 3-(2,4-5-Trichlorophenylthiomethyl)-1,2,4-oxadiazole]: the inhibition in vivo at 20 mg/kg in the data set on P. berghei (7 × 20 mg/kg) stood at 18%. The inhibition in vivo at 100 mg/kg in the data set on P. berghei turned out to be 19%. Moreover, the “Index of Inhibition” value in the data set on Eimeria tenella [1] (20μg/ml) is 4 (91-100% inhibition). Regarding `Cc1nc(CSc2ccc(Br)cc2)no1` [Example 22, 3-(4-Bromophenylthiomethyl)-5-methyl-1,2,4-oxadiazole], in the data set with P. berghei, the inhibition in vivo at 100 mg/kg stood at 46%. Besides, the “Index of Inhibition” value in the data set on Eimeria tenella [1] (20μg/ml) is reported as 2. Take `Cc1nc(CSc2cccc(C)c2C)no1` [Example 23, 3-(2,3-Dimethylphenylthiomethyl)-5-methyl-1,2,4-oxadiazole]: the “Index of Inhibition” value in the data set with Eimeria tenella [1] (20μg/ml) came out at 3. As for `Cc1nc(CSc2ccc([N+](=O)[O-])cc2)no1` [Example 24, 3-(4-Nitrophenylthiomethyl)-5-methyl-1,2,4-oxadiazole], the “Index of Inhibition” value in the data set on Eimeria tenella [1] (20μg/ml) is listed as 2. As for `Cc1nc(CSc2ccc(Cl)cc2)no1` [Example 25, 3-(4-Chlorophenylthiomethyl)-5-methyl-1,2,4-oxadiazole], in the data set on Eimeria tenella [1] (20μg/ml), the “Index of Inhibition” value is on record as 2.

For the compound `Brc1ccc(SCc2noc(CSc3ccc(Br)cc3)n2)cc1` [Example 26, 3,5-Di-(4-bromophenylthiomethyl)-1,2,4-oxadiazole], the inhibition in vivo at 100 mg/kg in the data set on P. berghei amounted to 99%. Also, the “Index of Inhibition” value with Eimeria tenella [1] (20μg/ml) is 2. Take `Clc1ccc(SCc2noc(CSc3ccc(Cl)cc3)n2)cc1` [Example 27, 3,5-Di-(4-chlorophenylthiomethyl)1,2,4-oxadiazole]: the inhibition in vivo at 100 mg/kg in the data set with P. berghei is 47%. Same read-out and setting: the figure for `Oc1ccccc1SCc1ncon1` [Example 29, 3-(2-Hydroxyphenylthiomethyl)-1,2,4-oxadiazole] is 23%. As for `FC(F)(F)c1cccc(SCc2ncon2)c1` [Example 31, 3-(3-Trifluoromethylphenylthiomethyl)-1,2,4-oxadiazole], the “Index of Inhibition” value in the data set on Eimeria tenella [1] (20μg/ml) was 4 (91-100% inhibition). For `CCCCc1ccc(SCc2ncon2)cc1` [Example 32, 3-(4-n-Butylphenylthiomethyl)-1,2,4-oxadiazole], in the data set with Eimeria tenella [1] (20μg/ml), the “Index of Inhibition” value was 2.

Regarding `CN(C)c1ccc(SCc2ncon2)cc1` [Example 33, 3-(4-N,N-Dimethylaminophenylthiomethyl)-1,2,4-oxadiazole], in the data set on P. berghei, the inhibition in vivo at 100 mg/kg came to 19%.

In the case of `CC(C)(C)c1ccc(SCc2ncon2)cc1` [Example 34, 3-(4-t-Butylphenylthiomethyl)-1,2,4-oxadiazole], in the data set with P. berghei, the inhibition in vivo at 100 mg/kg amounted to 28%. As for `Clc1ccc(SCc2ncon2)cc1` [Example 36, 3-(4-Chlorophenylthiomethyl)-1,2,4-oxadiazole], the “Index of Inhibition” value in the data set on Eimeria tenella [2] is 4 (91-100% inhibition). Turning to `Cc1ccc(Br)c(SCc2ncon2)c1` [Example 37, 3-(2-Bromo-5-methylphenylthiomethyl)-1,2,4-oxadiazole], the “Index of Inhibition” value in the data set on Eimeria tenella [1] (5μg/ml) is reported as 2; with Eimeria tenella [1] (20μg/ml), 3. With `c1ccc2cc(SCc3ncon3)ccc2c1` [Example 38, 3-(2-Naphthylthiomethyl)-1,2,4-oxadiazole], the inhibition in vivo at 100 mg/kg in the data set on P. berghei stood at 21%. For `Nc1ccccc1SCc1nc(CSc2ccc(Cl)cc2)no1` [Example 40, 5-(2-aminophenylthiomethyl)-3-(4-chlorophenylthiomethyl)-1,2,4-oxadiazole], the inhibition in vivo at 100 mg/kg with P. berghei turned out to be 18%.

Consider `Nc1ccc(SCC2=NOCN2)cc1` [Example 44, 3-(4-aminophenylthiomethyl)-4,5-dihydro-1,2,4-oxadiazole], for which the inhibition in vivo at 100 mg/kg in the data set with P. berghei is 10%.

Consider `N#CSc1ccc(SCc2ncon2)cc1` [Example 45, 3-(4-Thiocyanatophenylthiomethyl)-1,2,4-oxadiazole], for which the inhibition in vivo at 10 mg/kg with P. berghei (7 × 10 mg/kg) was determined as 34%. Moreover, in the data set on Eimeria tenella [1] (5μg/ml), the “Index of Inhibition” value is given as 2.
